Test results taken from patent publication US11293870B2, “Vital stain” (Mie University, priority 2013, dated 2022).
Entries after “also recorded” stand apart in the source; their conditions may differ. Structures can show the parent of a compound that is named as a salt. Where two headings read alike, the source gives them in different places.

What was measured:
[1] = system: MDCK-GFP-Ras^V12 cells mixed with MDCK normal cells; experiment: In vitro assay of MDCK-Ras^V12 cancerized cell small aggregates as a very early cancer model; assay type: cell-based, canine; details: excitation 750, 800, 850, 900 nm, red fluorescence
Method: The MDCK normal cells were cultured in a 10 cm dish, and the MDCK-GFP-Ras^V12 cells were cultured in a 6 cm dish. The culture solution used for the MDCK normal cells was DMEM (containing Phenol Red)+10% FBS+penicillin/streptomycin.
The solution used for the MDCK-GFP-Ras^V12 cells was DMEM (containing Phenol Red)+10% FBS+penicillin/streptomycin+Zeocin (400 μg/ml)+blasticidin (5 μg/ml). […] The seeding was carried out using a DMEM+10% FBS+penicillin/streptomycin culture solution, to 1.0 to 3.0×10^4 cells per well of the 96-well dish. Tetracycline at a concentration of 2 μg/ml was added to the culture solution after 4 days when seeding was to 1.0×10^4 or after 1 day when seeding was to 3.0×10^4, and GFP-Ras^V12 was expressed, forming cancerized cell small aggregates among the MDCK normal cells (NPL 3). After 18 to 36 hours, the cells in each of the wells were rinsed 3 times with 200 μl of PBS, and then the Prestwick Chemical Library compounds and the Ministry of Health, Labour and Welfare-approved food additives, each diluted to 1 μM with a 100 μl volume of PBS, were added to the respective wells and taken up by the cells for 5 minutes at room temperature. They were then rinsed 3 times with 200 μl of PBS, and in certain cases further rinsed once with 100 μl of DMEM without Phenol Red, and observed under a multiphoton laser microscope.

[2] = system: epithelial cells/adenocytes and connective tissue/capillaries; experiment: Preferential staining of epithelial cells/adenocytes or connective tissue/capillaries; assay type: in vivo, mouse; details: 5 mg/ml for curcumin, 1 mg/ml for all other dyes
Method: Drinking water containing 2% (w/v) dextran sodium sulfate (DSS) was given to 8-week-old C57B6 mice (male, approximately 20 g) for 7 days. After intraperitoneal injection of 0.2 ml of 5% chloral hydrate for anesthesia, the mouse abdominal wall was incised vertically to about 1 cm, and the gastrointestinal tract was raised over the abdominal wall to about 1 cm. Blood flow to the gastrointestinal tract was maintained during this time by the blood vessel flowing into the mesenteric attachment site. The gastrointestinal tract was incised vertically to about 1 cm on opposite side of the mesenteric attachment site, including the tunica muscularis and mucosa. The opposite side of the mesenteric attachment site was incised in order to prevent severance and damage of the blood vessel and minimize bleeding. When the incision site of the gastrointestinal tract was opened vertically, the mucosal surface of the gastrointestinal tract, as the food channel, became visible. When food digestion products were present they were wiped off with tissue paper.
A metal ring (outer diameter: 16 millimeters, inner diameter, 6 millimeters) was placed on a laboratory stage, and a rapid bonding adhesive (AronAlpha) was coated over the entire periphery of the ring surface on one side. Forceps were used to hold the rapid bonding adhesive-coated metal ring with the adhesive-coated surface facing downward, and it was set on the pronase-treated mucosal surface. During a period of about 5 minutes, the metal ring became anchored to the mucosa with the rapid bonding adhesive, and the region where the dye compound was to be applied was rinsed with PBS.
In order to avoid drying of the mucosal surface, a curcumin stock solution or sulfuretin stock solution diluted with physiological saline (PBS) (see Tables 1 to 3 for the dilution factors) was added dropwise onto the pronase-treated mucosal surface, and after allowing it to stand for 1 minute, it was rinsed 3 times with PBS, a cover glass was placed over the metal ring, and the objective lens of a multiphoton laser microscope (FV1000 MPE by Olympus Corp.) was brought near to the top of the cover glass for image observation.
The procedure from administration of the dye compound to observation was conducted as described above under “Evaluation of stainability” (same hereunder). Also, the administered concentration of dye to the mucosal surface was 5 mg/ml for curcumin as Dye No. 1, and 1 mg/ml for all of the other dyes.

[3] = cited from earlier work
[4] = cited from earlier work; remark: listed apart in the source
[5] = system: cancer lesion site versus normal mucosa of large intestine; experiment: Comparison of staining patterns in normal site and cancer tumor site of large intestine; assay type: in vivo, mouse; details: Example 1; regardless of pronase treatment of the mucosal surface
Method: Drinking water containing 2% (w/v) dextran sodium sulfate (DSS) was given to 8-week-old C57B6 mice (male, approximately 20 g) for 7 days. After intraperitoneal injection of 0.2 ml of 5% chloral hydrate for anesthesia, the mouse abdominal wall was incised vertically to about 1 cm, and the gastrointestinal tract was raised over the abdominal wall to about 1 cm. Blood flow to the gastrointestinal tract was maintained during this time by the blood vessel flowing into the mesenteric attachment site. The gastrointestinal tract was incised vertically to about 1 cm on the opposite side of the mesenteric attachment site, including the tunica muscularis and mucosa. The opposite side of the mesenteric attachment site was incised in order to prevent severance and damage of the blood vessel and minimize bleeding. When the incision site of the gastrointestinal tract was opened vertically, the mucosal surface of the gastrointestinal tract, as the food channel, became visible. When food digestion products were present they were wiped off with tissue paper. In order to more clearly observe the gastrointestinal tract mucosal surface, a 1% pronase solution was dropped onto the mucosal surface and was allowed to stand still for 15 minutes. This pronase treatment removed the mucus from the mucosal surface, rendering the cell structure more easily visible. Next, the pronase was removed from the mucosal surface and rinsed with physiological saline (PBS). A metal ring (outer diameter: 16 millimeters, inner diameter, 6 millimeters) was placed on a laboratory stage, and a rapid bonding adhesive (AronAlpha) was coated over the entire periphery of the surface on one side. Forceps were used to hold the rapid bonding adhesive-coated metal ring with the adhesive-coated surface facing downward, and it was set on the pronase-treated mucosal surface. During a period of about 5 minutes, the metal ring became anchored to the mucosa with the rapid bonding adhesive, and the region where the dye compound was to be applied was rinsed with PBS. […] FIG. 32 is a drawing for illustration of a stainability evaluation step for the aforementioned dye compounds. […] Z stack image). […] Both of the staining photographs of the normal site and cancer tumor site were taken under the same conditions.

[6] = Prestwick Chemical Library compounds, 1 μM, 5 minutes
[7] = Ministry of Health, Labour and Welfare-approved food additives, 1 mg/ml

Molecule | Cell group preferentially stained (epithelial cells/adenocytes or connective tissue/capillaries) [2] | LD50 ([4]; Mouse, Oral) | further results
COc1cc(-c2ccc(N=Nc3ccc4c(S(=O)(=O)[O-])cc(S(=O)(=O)[O-])c(N)c4c3O)c(OC)c2)ccc1N=Nc1ccc2c(S(=O)(=O)[O-])cc(S(=O)(=O)[O-])c(N)c2c1O.[Na+].[Na+].[Na+].[Na+] [Chicago sky blue 6B, reference compound] |  |  | Staining of GFP-Ras^V12 positive cancerized cells versus MDCK normal cells [1, 6]: labeling both cancerized cell small aggregates and normal cells; Staining of GFP-Ras^V12 positive cancerized cells versus MDCK normal cells ([1]; Prestwick Chemical Library compounds, 1 μM, 5 minutes, listed as Chicago Sky Blue 6B): equal staining of normal cells and cancer cells
CCN(Cc1cccc(S(=O)(=O)[O-])c1)c1ccc(C(=C2C=CC(=[N+](CC)Cc3cccc(S(=O)(=O)[O-])c3)C=C2)c2ccc(O)cc2S(=O)(=O)[O-])cc1.[Na+].[Na+] [Green #3, Fast Green FCF] | some adenocytes and connective tissue/capillaries were strongly stained |  | LD50 ([3]; Rat, Oral): >2000 mg/kg; Staining of GFP-Ras^V12 positive cancerized cells versus MDCK normal cells [1, 7]: labeled GFP-Ras^V12-positive cancerized cell small aggregates more intensely than normal cells; also recorded: specific staining of cancer cells
O=S(=O)([O-])c1ccc(N=Nc2c(O)ccc3cc(S(=O)(=O)[O-])ccc23)cc1.[Na+].[Na+] [Yellow #5, Sunset Yellow FCF] |  | >6000 mg/kg | 
O=C1OC2(c3ccccc31)c1cc(I)c(O)c(I)c1Oc1c2cc(I)c(O)c1I [Red #3, erythrosine] | preferentially stained epithelial cells/adenocytes |  | Staining of cancer lesion sites compared with normal mucosa [5]: stained cancer lesion sites much more intensely than normal mucosa; Staining of GFP-Ras^V12 positive cancerized cells versus MDCK normal cells [1, 7]: GFP-Ras^V12 positive cells were preferentially stained; Staining of GFP-Ras^V12 positive cancerized cells versus MDCK normal cells ([1]; Ministry of Health, Labour and Welfare-approved food additives, 1 mg/ml, listed as erythrosine): labeled GFP-Ras^V12-positive cancerized cell small aggregates more intensely than normal cells; LD50 ([4]; mouse, in vivo, po): 6800 mg/kg
O=C(O)c1nn(-c2ccc(S(=O)(=O)O)cc2)c(O)c1N=Nc1ccc(S(=O)(=O)O)cc1 [Yellow #4, tartrazine] |  | 12750 mg/kg | 
Oc1cc(O)c2ccc(-c3cc(O)c(O)c(O)c3)[o+]c2c1 [Tricetinidin] | preferentially stained epithelial cells/adenocytes | 300 mg/kg | 
O=C1/C(=C2\Nc3ccc(S(=O)(=O)[O-])cc3C2=O)Nc2ccc(S(=O)(=O)[O-])cc21.[Na+].[Na+] [Blue #2, indigo carmine] | preferentially stained connective tissue/capillaries | 2000 mg/kg | 
Oc1ccc(-c2[o+]c3cc(O)cc(O)c3cc2O)cc1 [Pelargonidin] |  | 300 mg/kg | 
O=C([O-])c1ccccc1-c1c2cc(Br)c(=O)cc-2oc2[c]([Hg+])c([O-])c(Br)cc12.[Na+].[Na+].[OH-] [merbromin, reference compound] |  |  | Staining of GFP-Ras^V12 positive cancerized cells versus MDCK normal cells [1, 6]: intensely labeled in GFP-Ras^V12 positive cancerized cell small aggregates compared to normal cells; also recorded: GFP-Ras^V12 positive cells were preferentially stained
COc1cc(/C=C/C(=O)CC(=O)/C=C/c2ccc(O)c(OC)c2)ccc1O [Curcumin (pure), Curcumin] |  |  | LD50 ([4]; mouse, in vivo, po): 2000 mg/kg
meclocycline sulfosalicylate [reference compound] |  |  | Staining of GFP-Ras^V12 positive cancerized cells versus MDCK normal cells [1, 6]: intensely labeled in GFP-Ras^V12 positive cancerized cell small aggregates compared to normal cells; also recorded: GFP-Ras^V12 positive cells were preferentially stained
CCCCC[C@H](O)CC(=O)CCc1ccc(O)c(OC)c1 [Gingerol, 6-gingerol] | preferentially stained epithelial cells/adenocytes |  | LD50 ([4]; mouse, in vivo, po): 250 mg/kg
O=C([O-])c1c(Cl)c(Cl)c(Cl)c(Cl)c1-c1c2cc(I)c(=O)c(I)c-2oc2c(I)c([O-])c(I)cc12.[Na+].[Na+] [Red #105 (720 nm)] |  | 6480 mg/kg | 
O=S(=O)([O-])c1ccc2c(N=Nc3ccc(S(=O)(=O)[O-])c4ccccc34)c(O)c(S(=O)(=O)[O-])cc2c1.[Na+].[Na+].[Na+] [Red #2] |  |  | LD50 ([4]; Mouse, Intra-abdominal): 1000 mg/kg
Oc1cc(O)c2cc(O)c(-c3ccc(O)c(O)c3)[o+]c2c1 [Cyanidin] |  |  | LD50 ([3]; rat, in vivo): 1500 mg/kg
COc1cc(-c2[o+]c3cc(O)cc(O)c3cc2O)cc(OC)c1O [Malvidin] |  |  | LD50 ([4]; Mouse, Intra-venous): 18 mg/kg
Oc1ccc(-c2ccc3c(O)cc(O)cc3[o+]2)cc1.[Cl-] [Apigeninidin] |  | 300 mg/kg | 
Oc1ccc2cc(O)c(-c3cc(O)c(O)c(O)c3)[o+]c2c1 [Robinetinidin] | preferentially stained connective tissue/capillaries |  | 
O=c1c(O)c(-c2cc(O)c(O)c(O)c2)oc2cc(O)cc(O)c12 [Myricetin] | preferentially stained epithelial cells/adenocytes | 300 mg/kg | 
Oc1cc(O)c2cc(O)c(-c3cc(O)c(O)c(O)c3)[o+]c2c1 [Delphinidin] |  |  | LD50 ([3]; rat, in vivo): 1250 mg/kg
CC1=C(/C=C/C(C)=C/C=C/C(C)=C/C=C/C=C(C)/C=C/C=C(C)/C=C/C2=C(C)CCCC2(C)C)C(C)(C)CCC1 [β-Carotene] | preferentially stained epithelial cells/adenocytes |  | LD50 ([3]; Rat, Oral): 5000 mg/kg
O=C(O[C@@H]1Cc2c(O)cc(O)cc2O[C@@H]1c1cc(O)c(O)c(O)c1)c1cc(O)c(O)c(O)c1 [Epigallocatechin gallate] | preferentially stained epithelial cells/adenocytes | 2170 mg/kg | 
CCN(CC)c1ccc2c(-c3ccc(S(=O)(=O)[O-])cc3S(=O)(=O)[O-])c3ccc(=[N+](CC)CC)cc-3oc2c1.[Na+] [Red #106, Acid Red] | the cell membranes of epithelial cells and adenocytes, and connective tissue/capillaries were strongly stained | >20,000 mg/kg | Staining of GFP-Ras^V12 positive cancerized cells versus MDCK normal cells [1, 7]: labeled both cancerized cell small aggregates and normal cells; also recorded: staining of both normal cells and cancer cells; LD50 ([4]; Mouse, Oral, listed as Acid Red): >20000 mg/kg
CC1=C(/C=C/C(C)=C/C=C/C(C)=C/C=C/C=C(C)/C=C/C=C(C)/C=C/C(=O)[C@]2(C)C[C@@H](O)CC2(C)C)C(C)(C)C[C@H](O)C1 [Capsanthin] |  | 300 mg/kg | 
COc1cccc2c1C(=O)c1c(O)c3c(c(O)c1C2=O)C[C@@](O)(C(=O)CO)C[C@@H]3O[C@H]1C[C@H](N)[C@H](O)[C@H](C)O1 [doxorubicin hydrochloride, reference compound] |  |  | Staining of GFP-Ras^V12 positive cancerized cells versus MDCK normal cells ([1]; Prestwick Chemical Library compounds, 1 μM, 5 minutes, hydrochloride): intensely labeling MDCK normal cells compared to cancerized cell small aggregates; also recorded: GFP-Ras^V12 cells were not specifically stained, but normal cells were stained
O=c1c(O)c(-c2ccc(O)c(O)c2)oc2cc(O)cc(O)c12 [Quercetin] | intensely stained connective tissue/capillaries and faintly stained epithelial cells/adenocytes |  | 
COc1cc(-c2[o+]c3cc(O)cc(O)c3cc2O)cc(O)c1O [Petunidine] | preferentially stained epithelial cells/adenocytes |  | LD50 ([4]; Mouse, Intra-abdominal): 4110 mg/mL
CC1(C)C(/C=C/C=C/C=C/C=C2\N(CCCCS(=O)(=O)O)c3ccc4ccccc4c3C2(C)C)=[N+](CCCCS(=O)(=O)[O-])c2ccc3ccccc3c21 [Indocyanine green, reference compound] | preferentially stained epithelial cells/adenocytes |  | 
